Laboratory results: BindingDB's records for patent US9610299 (Gilead Sciences, 2017)

How the values were obtained:
[1] = target: T1, Aldehyde dehydrogenase, mitochondrial (Homo sapiens, UniProt P05091); test: ALDH2 Assay
T1 sequence (P05091 whole entry): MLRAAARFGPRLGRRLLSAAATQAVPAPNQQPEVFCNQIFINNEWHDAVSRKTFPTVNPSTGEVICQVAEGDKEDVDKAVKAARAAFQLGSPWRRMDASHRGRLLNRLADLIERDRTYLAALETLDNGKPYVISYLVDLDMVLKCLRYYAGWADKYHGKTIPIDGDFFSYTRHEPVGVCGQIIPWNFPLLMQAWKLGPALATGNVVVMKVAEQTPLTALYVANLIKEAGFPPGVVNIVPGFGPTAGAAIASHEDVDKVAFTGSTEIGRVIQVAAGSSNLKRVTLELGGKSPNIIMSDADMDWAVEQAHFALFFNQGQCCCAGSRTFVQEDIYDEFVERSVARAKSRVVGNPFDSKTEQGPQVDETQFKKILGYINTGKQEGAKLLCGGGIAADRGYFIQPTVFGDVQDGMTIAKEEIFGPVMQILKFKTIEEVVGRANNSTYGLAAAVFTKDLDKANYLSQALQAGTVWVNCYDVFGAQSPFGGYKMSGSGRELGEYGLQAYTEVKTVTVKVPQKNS
Method: Standard ALDH2 reaction mixtures contained 150 uM formaldehyde, 2.5 mM NAD+, 10 mM MgCl2 and 10 nM recombinant human ALDH2 in 50 mM Hepes buffer, pH 7.4, 0.01% Tween 20 in a final volume of 50 ul using 384-well plates. After 60 min of pre-incubation of compound with ALDH2 and formaldehyde, the reaction was started by adding NAD+ and the reaction mixture was allowed to proceed for 90 minutes. Activity of the enzyme was determined by monitoring NADH formation using Perkin-Elmer Envision Reader with excitation and emission wavelengths set at 340 and 460 nm, respectively.

[2] = target: T2, Amine oxidase [flavin-containing] B (Homo sapiens, UniProt P27338); test: MAO-A and MAO-B Assay
T2 sequence (P27338 whole entry): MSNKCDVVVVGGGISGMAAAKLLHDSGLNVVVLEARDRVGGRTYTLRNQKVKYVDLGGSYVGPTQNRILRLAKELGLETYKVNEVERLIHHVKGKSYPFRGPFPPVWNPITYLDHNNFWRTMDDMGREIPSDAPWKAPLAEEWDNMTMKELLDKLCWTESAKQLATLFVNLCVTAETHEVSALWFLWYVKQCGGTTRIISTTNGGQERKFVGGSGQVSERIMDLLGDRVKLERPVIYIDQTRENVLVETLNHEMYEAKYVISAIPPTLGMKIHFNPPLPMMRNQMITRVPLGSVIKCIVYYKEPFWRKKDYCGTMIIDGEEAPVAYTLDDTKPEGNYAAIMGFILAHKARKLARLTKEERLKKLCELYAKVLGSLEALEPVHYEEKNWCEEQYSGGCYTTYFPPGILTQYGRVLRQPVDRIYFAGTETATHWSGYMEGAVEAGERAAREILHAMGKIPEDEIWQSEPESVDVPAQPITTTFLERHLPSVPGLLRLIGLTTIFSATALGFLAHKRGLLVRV
Method: (§1) MAO assays included luminogenic MAO substrate, reaction buffers, Luciferin Detection and the reconstitution buffer with esterase. Standard MAO reaction mixtures included microsome contained MAO-A (2 ug) or MAO-B (10 ug), 160 uM substrate for MAO-A or 16 uM substrate for MAO-B, MAO-A buffer (100 mM Hepes buffer, pH 7.5, 5% glycerol) or MAO-B buffer (100 mM Hepes, pH 7.5, 5% glycerol, 10% dimethyl sulfoxide) in a final volume of 30 ul. After 20 minutes of pre-incubation of the enzyme with compounds, the reaction was initiated by adding enzyme substrate and the reaction was allowed to proceed for 60 minutes. Reconstituted Luciferin Detection Reagent (30 ul) was then added is added to simultaneously stop the MAO reaction and convert the methyl ester derivative to luciferin and produce light. The amount of light produced is directly proportional to the activity of MAO. The mixtures were further incubated for 20 minutes and activity of the enzyme was determined using Perkin-Elmer Envision Reader.

[3] = target: T3, Amine oxidase [flavin-containing] A (Homo sapiens, UniProt P21397); test: MAO-A and MAO-B Assay
T3 sequence (P21397 whole entry): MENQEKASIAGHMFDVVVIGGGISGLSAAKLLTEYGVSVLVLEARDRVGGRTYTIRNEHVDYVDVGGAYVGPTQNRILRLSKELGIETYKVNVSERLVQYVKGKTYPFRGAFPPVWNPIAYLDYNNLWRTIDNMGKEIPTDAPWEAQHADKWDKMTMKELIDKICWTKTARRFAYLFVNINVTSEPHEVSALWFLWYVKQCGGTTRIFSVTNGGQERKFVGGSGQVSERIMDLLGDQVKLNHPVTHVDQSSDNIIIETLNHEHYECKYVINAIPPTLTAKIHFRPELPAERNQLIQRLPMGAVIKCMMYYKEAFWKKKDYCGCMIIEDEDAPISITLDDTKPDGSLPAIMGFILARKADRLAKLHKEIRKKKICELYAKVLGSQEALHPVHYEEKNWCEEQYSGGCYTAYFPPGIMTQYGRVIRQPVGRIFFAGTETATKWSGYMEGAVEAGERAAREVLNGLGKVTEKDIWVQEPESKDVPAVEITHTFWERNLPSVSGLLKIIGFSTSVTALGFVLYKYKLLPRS
Method: as §1

IC50 [1]: 1.11 µM | IC50 [2]: > 130 µM | IC50 [3]: > 130 µM
SMILES: Cc1cccc(C)c1C(=O)NCc1ccc(C2CCNC(=O)C2)cc1 (stereo not drawn) [US9610299, Example 6]
